Measured values taken from patent US20070014721A1, “Hydrazide conjugates as imaging agents” (priority 2005, published 2007).

Key:
[1] = test system: aorta of atherosclerotic rabbit model; test: In vivo rabbit aorta uptake study, atherosclerotic (plaque) rabbit; settings: 60 minutes postinjection; for Aorta/Blood (Plaque Rabbit): calculated from the % ID/g data; for Aorta Uptake, % ID/g (Plaque Rabbit): marginal ear vein bolus
Description: Atherosclerosis was induced in New Zealand White male rabbits (3 kg) with aortic balloon endothelial injury followed by feeding a 0.5% cholesterol diet for 22 weeks. Test compounds were radiolabeled(^14C, ^99mTc, or ^111In as described above) and administered at 0.02-1.0 mCi/kg to anesthetized rabbits in a single, bolus injection vis the marginal ear vein. Blood samples were collected from the central ear artery at 0, 2, 5, 7, 10, 15, 30, and 60 minutes post injection. Rabbits were euthanized at 60 minutes post injection for tissue harvesting (blood, muscle, bile, urine, kidney, liver, spleen, heart, lung, colon, small intestine, stomach, testes). Abdominal aorta (upper, middle, and lower) and left and right femoral arteries were collected. Both plaque bearing and non-plaque bearing rabbits were administered compounds to compare aorta uptake. All samples were weighed and assayed for radioactivity. Tissue uptake is expressed as percent of injected dose per gram of tissue (% ID/g). The aorta to blood ratios were calculated from the % ID/g data.

[2] = test system: Rabbit plaque aorta or normal rabbit aorta; test: Ex vivo blood vessel binding assay; design: species or system New Zealand white rabbits; settings: radiolabeled compound incubated with rabbit aorta (0.5 cm) in phosphate buffered saline for 2 hours at 37° C; bound compound as percentage of the incubated compound
Description: Normal aorta was obtained from New Zealand white rabbits. Aorta bearing atherosclerotic plaque was obtained from New Zealand white rabbits balloon stripped along the abdominal aorta and placed on a high fat diet (0.5% cholesterol) for 16-22 weeks. Vascular injury was produced with a 3-F Fogarty catheter along the abdominal aorta and left iliofemoral artery. This procedure generates an accelerated complex lesion development with a lipid rich core covered by a fibrous cap in rabbits. Rabbit plaque aorta or normal rabbit aorta (0.5 cm) was incubated with 10 nCi of ^14C labeled compound or 1.5 μCi of ^99m Tc labeled compound or 0.135 μCi of ^111In labeled compound or 0.135 μCi of ^68Ga labeled compound or 0.135 µCi of ^153Gd labeled compound diluted in phosphate buffered saline (450 μL) for 2 hours at 37° C. The supernatant from this sample was collected and analyzed by HPLC to determine compound stability in presence of blood vessels. The blood vessel tissue was then washed with phosphate buffered saline (3×10 mL). Phosphate buffered saline (10 ml) was added to the tissue and incubated at 37° C. for 1 hour. The tissue was then washed with phosphate buffered saline (3×10 mL). The washed tissue was oxidized in a tissue oxidizer for C-14 labeled compounds. The counts in the oxidized tissue were determined on a beta counter. Blood vessels incubated with ^99m Tc labeled compound or ^111In labeled compound or ^68Ga labeled compound or ^153Gd labeled compound were counted on a gamma counter. The amount of compound bound to the tissue was determined as a percentage of the incubated compound. This was calculated using the following formula: [formula]

[3] = test system: aorta of apolipoprotein E (apoE) knockout mouse; test: In vivo ApoE mouse aorta uptake study; settings: 60 min postinjection; for Aorta (% ID/g): ApoE mouse on high-fat diet 37-41 weeks, tail vein bolus; for Aorta/Blood Ratio: ApoE mouse, calculated from the % ID/g data
Description: Mice were fed a high-fat diet to accelerate plaque formation and compounds were tested in the mice between 37-41 weeks on diet. Test compounds were radiolabeled (^14C, ^99mTc, or ^111In as described above) and administered at 0.02-4.0 mCi/kg to anesthetized mice in a single, bolus injection via the tail vein. Blood samples were collected via the tail between 0-30 minutes postinjection for pharmacokinetic analysis and mice were euthanized by CO2 at 60 minutes for tissue harvesting. The aorta were flushed with saline through the left ventricle exiting via the femoral vein. The aorta were then removed from the heart to the renal bifurcation and additional tissue samples collected (blood, muscle, liver, kidney, heart, lung, spleen and innominate artery). All samples were weighed and assayed for radioactivity. Tissue uptake is expressed as percent of injected dose per gram of tissue (% ID/g). The aorta to blood ratios were calculated from the % ID/g data.

[4] = test system: aorta of normal (non-plaque bearing) rabbit; test: In vivo rabbit aorta uptake study, normal rabbit; design: species or system New Zealand White male rabbits; settings: 60 minutes postinjection; for Aorta/Blood (Normal Rabbit): calculated from the % ID/g data; for Aorta Uptake, % ID/g (Normal Rabbit): marginal ear vein bolus
Description: All samples were weighed and assayed for radioactivity.

| Substance | Aorta/Blood (Plaque Rabbit) [1] | Aorta Uptake, % ID/g (Plaque Rabbit) [1] | Tissue Binding % [2] | Aorta (% ID/g) [3] | Aorta/Blood Ratio [3] | Aorta/Blood (Normal Rabbit) [4] | Aorta Uptake, % ID/g (Normal Rabbit) [4] |
| --- | --- | --- | --- | --- | --- | --- | --- |
| Boc-d-Leu-Ahxh-H [Example 120] | 3.98 | 0.088 % ID/g | 14.09% | 8.9 % ID/g | 2.2 | – | – |
| Boc-d-Leu-Inph-H [Example 139] | 2.92 | 0.096 % ID/g | 18.36% | 17.2 % ID/g | 5.0 | – | – |
| H-d-1-Nal-Ambh-DTPA [Example 183] | – | – | 24.41% | 15.7 % ID/g | 11.7 | 4.72 | 0.146 % ID/g |
| H-d-Hphe-Ambh-DTPA [Example 203] | 2.76 | 0.127 % ID/g | 17.96% | 12.9 % ID/g | 8.7 | 4.78 | 0.129 % ID/g |
| H-d-Leu-Ahxh-Apa-DOTA [Example 215] | 1.31 | 0.092 % ID/g | 11.54% | – | – | – | – |
| H-d-Leu-Ahxh-DOTA [Example 155] | 1.67 | 0.080 % ID/g | 3.49% | 5.1 % ID/g | 2.0 | 2.21 | 0.065 % ID/g |
| H-d-Leu-Apah-Ahx-DTPA [Example 176] | – | – | 25.21% | 12.2 % ID/g | 13.3 | 4.95 | 0.123 % ID/g |
| H-d-Leu-Apah-DTPA [Example 159] | 4.08 | 0.083 % ID/g | 10.10% | 9.5 % ID/g | 3.0 | – | – |
| H-d-Leu-Apph-DTPA [Example 171] | 2.89 | 0.168 % ID/g | 16.56% | 6.7 % ID/g | 8.8 | 4.49 | 0.143 % ID/g |
| H-d-Phe-Ambh-DTPA [Example 161] | – | – | 7.75% | 8.7 % ID/g | 4.9 | – | – |
| H-d-Phe-Apah-DTPA [Example 164] | 3.56 | 0.085 % ID/g | 13.88% | 8.2 % ID/g | 7.5 | – | – |
| H-d-Phe-Apph-Ahx-DTPA [Example 182] | – | – | 12.02% | 11.0 % ID/g | 4.5 | – | – |
| H-d-Phe-Apph-DTPA [Example 174] | – | – | 17.15% | 8.7 % ID/g | 11.0 | 5.42 | 0.111 % ID/g |
| H-d-Phe-Bbh-DTPA [Example 209] | – | – | 20.9% | 10.8 % ID/g | 9.6 | – | – |
| H-d-Phe-NHNH-DTPA [Example 192] | – | – | 1.78% | 2.3 % ID/g | 1.9 | – | – |
| H-d-Phe-XInph-DTPA [Example 202] | – | – | 5.44% | 4.3 % ID/g | 4.0 | – | – |
| H-d-Ser(Bzl)-Ahxh-DTPA [Example 166] | – | – | 5.91% | 4.0 % ID/g | 3.3 | – | – |
| H-d-Stya-Ambh-DTPA [Example 187] | – | – | 13.66% | 6.1 % ID/g | 5.4 | – | – |
| H-d-Tic-Apah-DTPA [Example 178] | – | – | 6.00% | 8.3 % ID/g | 4.2 | – | – |
| H-d-Trp-Ambh-DTPA [Example 208] | – | – | 14.91% | 14.8 % ID/g | 8.7 | 5.58 | 0.135 % ID/g |
| H-d-Trp-Apph-ETPA [Example 184] | – | – | 13.08% | 12.5 % ID/g | 11.3 | – | – |
| H-d-Tyr(Bzl)-Ambh-DTPA [Example 206] | – | – | 19.62% | 5.8 % ID/g | 3.2 | – | – |
| H-d-Tyr(Et)-Apah-DTPA [Example 169] | – | – | 13.53% | 6.1 % ID/g | 5.1 | – | – |
| H-d-Val-Ahxh-DTPA [Example 191] | – | – | 3.02% | 5.3 % ID/g | 1.5 | – | – |
| [H-d-Cys(Bzl)-Apph]2EDTA[APEEPA-DTPA]2 [Example 186] | – | – | 7.78% | 7.0 % ID/g | 1.5 | – | – |
